The text below walks through data of patent US20050130968A1, “Fungicidal 4-(2-aminopyridin-4-yl)-N-phenyl-1,3,5-triazin-2-amine derivatives” (priority 2003, published 2005).

A word on the melting point: it is the temperature of the solid-liquid transition.

The subject of one data set is Cochliobolus sativus. The data set can be described thus: Spot Blotch of Wheat 1-day protectant test (COCHSA). The format is in vivo. The conditions noted are these: Bipolaris sorokiniana, 24 h; one-day protectant test, 200 ppm application rate, wheat plants (variety Yuma); read-out: COCHSA control of disease. The procedure: The technical compounds were formulated at 200 ppm in 10 vol. acetone plus 90 vol. Triton X water (deionized water 99.99 wt. % +0.01 wt. Triton X100), giving a “formulated test compound.” The compounds were tested for ability to control plant diseases at the whole plant level in a 1-day protectant test (IDP). Formulated test compounds were applied to plants using a turn table sprayer fitted with two opposing air atomization nozzles which delivered approximately 1500 L/ha of spray volume. Plants were inoculated with spores of the fungus the next day, then incubated in an environment conducive to disease development. Disease severity was evaluated 4 to 19 days later, depending on the speed of disease development. […] Each pot contained 3-8 seedlings. These plants were sprayed until wet with the formulated test compound at a rate of 200 ppm. On the following day, the leaves were inoculated with an aqueous spore suspension of Cochliobolus sativus and the plants were kept in high humidity for one to two days to permit spores to germinate and infect the leaf. The plants were then transferred to a greenhouse until disease developed on untreated control plants. The following table presents the activity of typical compounds of the present invention when evaluated in these experiments. The effectiveness of the test compounds in controlling disease was determined by assessing the severity of disease on treated plants, then converting the severity to percent control based on the level of disease on untreated, inoculated plants.

The next data set concerns Puccinia triticina. The data set can be described thus: Leaf Rust of Wheat 1-day protectant test (PUCCRT). The format is in vivo. As to conditions: topical, 24 h, one-day protectant test, 200 ppm application rate, wheat plants (variety Yuma), read-out: PUCCRT control of disease. The procedure:
The technical compounds were formulated at 200 ppm in 10 vol. acetone plus 90 vol. Triton X water (deionized water 99.99 wt. % +0.01 wt. Triton X100), giving a “formulated test compound.” The compounds were tested for ability to control plant diseases at the whole plant level in a 1-day protectant test (IDP). Formulated test compounds were applied to plants using a turn table sprayer fitted with two opposing air atomization nozzles which delivered approximately 1500 L/ha of spray volume. Plants were inoculated with spores of the fungus the next day, then incubated in an environment conducive to disease development. Disease severity was evaluated 4 to 19 days later, depending on the speed of disease development. […] Each pot contained 3-8 seedlings. These plants were sprayed until wet with the formulated test compounds at a rate of 200 ppm. On the following day, the leaves were inoculated with an aqueous spore suspension of Puccinia triticina and the plants were kept in high humidity overnight to permit spores to germinate and infect the leaf. The plants were then transferred to a greenhouse until disease developed on untreated control plants. The following table presents the activity of typical compounds of the present invention when evaluated in these experiments. The effectiveness of the test compounds in controlling disease was determined by assessing the severity of disease on treated plants, then converting the severity to percent control based on the level of disease on untreated, inoculated plants.

The next data set concerns Pyricularia oryzae. The data set can be described thus: whole plant or invertebrate. The format is in vivo. As to conditions: topical, 24 h, read-out: PYRIOR control of disease.
The subject of a further data set is Leptosphaeria nodorum. The data set can be described thus: Glume Blotch of Wheat 1-day protectant test (LEPTNO). It is filed as in vivo. As to conditions: Parastagonospora nodorum, topical, 24 h; one-day protectant test, 200 ppm application rate, wheat plants (variety Yuma); read-out: LEPTINO control of disease. The method, then:
The technical compounds were formulated at 200 ppm in 10 vol. acetone plus 90 vol. Triton X water (deionized water 99.99 wt. % +0.01 wt. Triton X100), giving a “formulated test compound.” The compounds were tested for ability to control plant diseases at the whole plant level in a 1-day protectant test (IDP). Formulated test compounds were applied to plants using a turn table sprayer fitted with two opposing air atomization nozzles which delivered approximately 1500 L/ha of spray volume. Plants were inoculated with spores of the fungus the next day, then incubated in an environment conducive to disease development. Disease severity was evaluated 4 to 19 days later, depending on the speed of disease development. Glume Blotch of Wheat (causal agent Leptosphaeria nodorum=Stagnospora nodorum; Bayer code […]): Wheat plants (variety Yuma) were grown from seed in a 50% pasteurized soil/50% soil-less mix until the seedlings had fully expanded first leaf. Each pot contains 3-20 seedlings. These plants were sprayed until wet with the formulated test compound at a rate of 200 ppm. On the following day, the leaves were inoculated with an aqueous spore suspension of Leptosphaeria nodorum and the plants were kept in high humidity (one day in a dark dew chamber followed by four to seven days in a lighted dew chamber) to permit spores to germinate and infect the leaf. The plants were then transferred to a greenhouse until disease developed on untreated control plants. The following table presents the activity of typical compounds of the present invention when evaluated in these experiments. The effectiveness of the test compounds in controlling disease was determined by assessing the severity of disease on treated plants, then converting the severity to percent control based on the level of disease on untreated, inoculated plants.

The subject of the next data set is Colletotricum lagenarium. The data set can be described thus: Cucumber Anthracnose 1-day protectant test (COLLLA). The conditions noted are these: Cucumis sativus, topical, 24 h; one-day protectant test, 200 ppm application rate, cucumber plants (variety Bush Champion); read-out: COLLLA control of disease. The format is in vivo. The procedure: The technical compounds were formulated at 200 ppm in 10 vol. acetone plus 90 vol. Triton X water (deionized water 99.99 wt. % +0.01 wt. Triton X100), giving a “formulated test compound.” The compounds were tested for ability to control plant diseases at the whole plant level in a 1-day protectant test (IDP). Formulated test compounds were applied to plants using a turn table sprayer fitted with two opposing air atomization nozzles which delivered approximately 1500 L/ha of spray volume. Plants were inoculated with spores of the fungus the next day, then incubated in an environment conducive to disease development. Disease severity was evaluated 4 to 19 days later, depending on the speed of disease development. Cucumber Anthracnose (causal agent Colletotricum lagenarium; Bayer code COLLLA): Cucumber plants (variety Bush Champion) were grown from seed in a soilless peat-based potting mixture (Metromix) until the first true leaf was 20-80% expanded. Each pot contained 1 seedling. These plants were sprayed until wet with the formulated test compound at a rate of 200 ppm. On the following day, the leaves were inoculated with an aqueous spore suspension of Colletotricum lagenarium and the plants were kept in high humidity for one day to permit spores to germinate and infect the leaf. The plants were then transferred to a growth chamber until disease developed on untreated control plants. The following table presents the activity of typical compounds of the present invention when evaluated in these experiments. The effectiveness of the test compounds in controlling disease was determined by assessing the severity of disease on treated plants, then converting the severity to percent control based on the level of disease on untreated, inoculated plants.

Another data set concerns Septoria tritici. The data set can be described thus: Speckled Leaf Blotch of Wheat 1-day protectant test (SEPTTR). The format is in vivo. The conditions noted are these: Zymoseptoria tritici, topical, 24 h; one-day protectant test, 200 ppm application rate, wheat plants (variety Monon); read-out: SEPTTR control of disease. The method, then: The technical compounds were formulated at 200 ppm in 10 vol. acetone plus 90 vol. Triton X water (deionized water 99.99 wt. % +0.01 wt. Triton X100), giving a “formulated test compound.” The compounds were tested for ability to control plant diseases at the whole plant level in a 1-day protectant test (IDP). Formulated test compounds were applied to plants using a turn table sprayer fitted with two opposing air atomization nozzles which delivered approximately 1500 L/ha of spray volume. Plants were inoculated with spores of the fungus the next day, then incubated in an environment conducive to disease development. Disease severity was evaluated 4 to 19 days later, depending on the speed of disease development. Speckled Leaf Blotch of Wheat (Mycosphaerella graminicola=Septoria tritici; Bayer code […]): Wheat plants (variety Monon) were grown from seed in a greenhouse in 50% pasteurized soil/50% soil-less mix until the first true leaf was fully expanded, with 3-8 seedlings per pot. These plants were sprayed until wet with the formulated test compound at a rate of 200 ppm. On the following day, the leaves were inoculated with an aqueous spore suspension of Septoria tritici and the plants were kept in high humidity (one day in a dark dew chamber followed by four to seven days in a lighted dew chamber) to permit spores to germinate and infect the leaf. The plants were then transferred to a greenhouse until disease developed on untreated control plants. The following table presents the activity of typical compounds of the present invention when evaluated in these experiments. The effectiveness of the test compounds in controlling disease was determined by assessing the severity of disease on treated plants, then converting the severity to percent control based on the level of disease on untreated, inoculated plants.

Some results are limits rather than exact numbers.

`Clc1cccc(Nc2ncnc(-c3ccnc(N4CCCCC4)c3)n2)c1` [Compound 7, N-(3-chlorophenyl)-4-(2-piperidin-1-ylpyridin-4-yl)-1,3,5-triazin-2-amine] registered a melting point of 168 to 169 °C. Further, in the data set on Cochliobolus sativus, the pest or weed control at 200 ppm lay within 21 to 49%. Moreover, the pest or weed control at 200 ppm in the data set with Puccinia triticina lay within 21 to 49%. Further, the pest or weed control at 200 ppm with Pyricularia oryzae is under 20%. Besides, in the data set on Leptosphaeria nodorum, the pest or weed control at 200 ppm is 50 to 89%. Besides, in the data set with Colletotricum lagenarium, the pest or weed control at 200 ppm is under 20%. Further, the pest or weed control at 200 ppm with Septoria tritici was 50 to 89%.
